What all share (type): binding
One assay has as its target T1, Tankyrase 1 CAT (Homo sapiens, UniProt O95271).
T1 construct: Tankyrase 1 CAT (residues 1093–1327) was cloned in pET24; made in house
T1 sequence (O95271 1093-1327): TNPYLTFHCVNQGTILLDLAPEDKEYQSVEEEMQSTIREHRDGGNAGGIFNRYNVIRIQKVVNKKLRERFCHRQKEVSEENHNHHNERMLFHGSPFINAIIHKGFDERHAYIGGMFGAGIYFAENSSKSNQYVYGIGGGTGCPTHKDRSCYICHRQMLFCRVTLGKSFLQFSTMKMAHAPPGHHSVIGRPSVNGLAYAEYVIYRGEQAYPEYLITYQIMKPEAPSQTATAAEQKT
Nature of the assay: DSF, Tankyrase 1 CAT. How it is done: (§1) DSF experiments were performed as described, [13] using 5 µM protein, 2.5 µM DNA when indicated and various concentrations of compound (BAD, carba-NAD^+, benzamide, and ADP-ribose) as indicated in Fig. 1 and Fig. 3. Experiments were performed on a Roche LightCycler 480 RT-PCR. Reactions including DNA were performed with a 26- or 28-base pair (bp) unphosphorylated oligonucleotide for PARP-1, a 28-bp 5´-phosphorylated (5´P) oligonucleotide for PARP-2, and a 47-bp oligonucleotide including a central 5´P nick for PARP-3^13 in the following buffer: 25 mM Hepes pH 8.0, 150 mM NaCl, 1 mM EDTA, and 0.1 mM TCEP. Reactions with PARP-3 were conducted at lower ionic strength to allow binding to DNA as described (25 mM Hepes pH 8.0, 50 mM NaCl, 1 mM EDTA and 0.1 mM TCEP)[13]. ΔTM values were calculated by subtracting the TM determined for the protein in the absence of compound from the TM determined in the presence of compound. Experiments were performed in triplicate and a Boltzmann sigmoid was fit to the data to determine the TM values (KaleidaGraph).
Background: In DSF a fluorescence change marks the thermal transition of the protein.

Assay [1] concerns the target T2, PARP-1 double mutant D766/D770A (Homo sapiens, UniProt P09874, D766A/D770A).
T2 construct: Full-length PARP-1 WT (residues 1–1014) was cloned in pET28 vector and site-directed mutagenesis was performed; made in house; host or cells: E. coli
Nature of the assay: DSF, full-length PARP-1 D766/D770A. The conditions noted are these: BAD 1250 μM. How it is done: as §1

The target in another assay is T3, PARP-2 (Homo sapiens, UniProt Q9UGN5).
T3 construct: PARP-2 (isoform 2, residues 1–570) was cloned in pET28 vector; made in house
Nature of the assay: DSF, full-length PARP-2 with or without DNA. As to conditions: for TM: Figure 3c, BAD 1250 μM, in °C (unit assumed). How it is done: as §1

A further assay addresses T4, full-length PARP-1 WT (Homo sapiens, UniProt P09874).
T4 construct: Full-length PARP-1 WT (residues 1–1014) was cloned in pET28 vector; made in house; host or cells: E. coli
Nature of the assay: One-dimensional 1H NMR monitoring BAD protons. How it is done: Full-length PARP-1 WT and a dumbbell DNA containing a central 1-nucleotide gap (5′-[…]-3′)[7], were dialyzed against a modified PBS buffer (222 mM NaCl, 2.7 mM KCl, 200 μM DTT, 10 mM sodium phosphate, pH 7.4). An aliquot of the dialysis PBS buffer was then lyophylized and resuspended in deuterated water (D2O). The NMR samples were prepared by diluting the protein (40 μM final), DNA (40 μM final), and BAD (20 μM final) in the deuterated buffer such that all samples contained 85% D2O final. The samples were incubated 30 min at RT prior to collecting the NMR spectra. ^1H (700.303 MHz) NMR spectra were acquired with a Bruker Avance II 700 spectrometer equipped with a 16.4 T narrowbore magnet and a double-resonance (^1 H/^13 C) cryoprobe. All samples were run using 3 mm NMR tubes (180 µL). 1D experiments were acquired with excitation sculpting to suppress residual water signal. The use of D2O as the primary solvent (85%) removed the signals from amide hydrogens in the region of interest (7–9 ppm), however a low-power T1p filter (70 ms) was necessary after the 90-degree excitation pulse to reduce signals from the non-exchangeable hydrogens arising from the large, slowly tumbling protein and DNA.

The target of the next assay is T5, PARP-3 (Homo sapiens, UniProt Q9Y6F1).
T5 construct: PARP-3 (isoform b, residues 1–533) was cloned in pDEST17 vector; made in house
T5 sequence (Q9Y6F1 1-533): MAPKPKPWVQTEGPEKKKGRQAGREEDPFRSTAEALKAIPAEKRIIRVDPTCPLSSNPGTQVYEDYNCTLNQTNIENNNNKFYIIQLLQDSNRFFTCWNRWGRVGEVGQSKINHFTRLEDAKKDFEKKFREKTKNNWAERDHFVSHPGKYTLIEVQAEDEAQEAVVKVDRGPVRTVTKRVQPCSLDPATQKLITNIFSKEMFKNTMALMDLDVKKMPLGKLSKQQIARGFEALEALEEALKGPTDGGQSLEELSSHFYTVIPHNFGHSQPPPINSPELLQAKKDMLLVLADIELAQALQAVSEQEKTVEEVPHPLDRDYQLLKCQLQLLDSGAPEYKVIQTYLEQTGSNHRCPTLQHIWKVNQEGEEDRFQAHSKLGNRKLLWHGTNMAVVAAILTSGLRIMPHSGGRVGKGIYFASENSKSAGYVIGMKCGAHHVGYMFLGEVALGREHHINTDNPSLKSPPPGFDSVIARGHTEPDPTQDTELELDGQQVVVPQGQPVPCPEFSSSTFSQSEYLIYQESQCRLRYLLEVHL
Nature of the assay: DSF, full-length PARP-3 with or without DNA. The conditions noted are these: for TM: Figure 3c, BAD 1250 μM, in °C (unit assumed). How it is done:
as §1

T3 sequence (Q9UGN5 1-570 isoform Q9UGN5-2): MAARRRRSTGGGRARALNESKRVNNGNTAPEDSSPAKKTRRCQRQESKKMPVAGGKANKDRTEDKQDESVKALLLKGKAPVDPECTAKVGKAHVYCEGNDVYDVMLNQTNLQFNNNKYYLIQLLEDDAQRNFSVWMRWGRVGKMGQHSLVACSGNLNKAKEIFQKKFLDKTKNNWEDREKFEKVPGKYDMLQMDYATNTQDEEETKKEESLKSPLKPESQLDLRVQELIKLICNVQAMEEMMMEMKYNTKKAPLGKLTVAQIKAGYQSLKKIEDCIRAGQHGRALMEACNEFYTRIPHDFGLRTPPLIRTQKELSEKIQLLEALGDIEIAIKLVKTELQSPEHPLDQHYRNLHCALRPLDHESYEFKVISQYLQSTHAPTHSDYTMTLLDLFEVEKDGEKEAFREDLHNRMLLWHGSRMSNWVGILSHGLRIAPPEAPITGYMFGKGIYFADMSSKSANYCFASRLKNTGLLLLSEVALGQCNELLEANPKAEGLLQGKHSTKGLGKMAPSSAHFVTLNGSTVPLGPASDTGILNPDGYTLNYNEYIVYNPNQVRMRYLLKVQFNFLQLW
T2 sequence (P09874 whole entry D766A/D770A, the tested form may be a part): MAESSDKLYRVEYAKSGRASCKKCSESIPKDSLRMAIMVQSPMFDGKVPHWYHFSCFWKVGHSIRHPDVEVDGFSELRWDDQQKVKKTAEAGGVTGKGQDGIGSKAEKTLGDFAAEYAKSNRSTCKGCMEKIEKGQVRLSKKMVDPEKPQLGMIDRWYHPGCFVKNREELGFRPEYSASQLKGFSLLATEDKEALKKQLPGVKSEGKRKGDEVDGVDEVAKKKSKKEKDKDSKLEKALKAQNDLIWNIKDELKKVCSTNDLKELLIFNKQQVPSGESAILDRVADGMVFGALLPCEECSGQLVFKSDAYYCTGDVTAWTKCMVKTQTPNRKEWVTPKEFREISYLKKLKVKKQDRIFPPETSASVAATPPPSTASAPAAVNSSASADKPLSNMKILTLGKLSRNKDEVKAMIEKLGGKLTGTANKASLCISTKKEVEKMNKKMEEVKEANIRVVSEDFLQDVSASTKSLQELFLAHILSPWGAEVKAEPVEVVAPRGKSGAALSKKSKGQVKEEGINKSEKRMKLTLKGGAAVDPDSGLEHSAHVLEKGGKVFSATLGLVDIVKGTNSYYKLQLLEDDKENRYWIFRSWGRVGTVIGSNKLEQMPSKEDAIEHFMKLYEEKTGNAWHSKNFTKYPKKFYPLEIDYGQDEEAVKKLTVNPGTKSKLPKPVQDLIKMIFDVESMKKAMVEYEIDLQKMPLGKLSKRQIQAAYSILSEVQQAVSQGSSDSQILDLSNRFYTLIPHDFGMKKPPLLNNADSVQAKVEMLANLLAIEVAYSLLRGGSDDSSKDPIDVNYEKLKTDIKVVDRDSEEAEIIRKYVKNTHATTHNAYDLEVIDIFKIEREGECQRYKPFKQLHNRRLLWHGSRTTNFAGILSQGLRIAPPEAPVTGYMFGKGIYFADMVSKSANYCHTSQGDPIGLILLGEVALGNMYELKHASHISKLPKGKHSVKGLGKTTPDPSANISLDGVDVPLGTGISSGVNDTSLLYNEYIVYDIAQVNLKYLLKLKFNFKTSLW
T4 sequence (P09874 whole entry, the tested form may be a part): as the sequence (P09874 whole entry D766A/D770A, the tested form may be a part) above, with A766D, A770D counted along it

Consider `NC(=O)c1cccc(C2OC(COP(=O)(O)OP(=O)(O)OCC3OC(n4cnc5c(N)ncnc54)C(O)C3O)C(O)C2O)c1` (stereo not drawn) [BAD, benzamide adenine dinucleotide], for which, at Tankyrase 1 CAT (CAT of tankyrase 1 (no HD)), the “binding to BAD based on the DSF analysis” value is “capable of binding”. Moreover, the TM on Tankyrase 1 CAT (Figure 3d, TNK CAT 5 μM, BAD 4 mM, TM without BAD 53.71, in °C (unit assumed)) was 57.42; in assay [1] (Figure 3a, no DNA, TM without BAD 45.94) it was 48.5 °C; at PARP-2 (PARP-2, no DNA, TM without BAD 47.71), 47.47; on PARP-2 (PARP-2 with DNA (2.5 μM, 28-bp duplex 5'P), TM without BAD 45.44) it was 47.28; on PARP-3 (PARP-3, no DNA, TM without BAD 35.81), 35.54; on PARP-3 (PARP-3 with DNA (2.5 μM, 47-bp duplex with central 5'P nick), TM without BAD 39.70), 41.02. In assay [1] (did not require the presence of DNA), the “TM change in the presence of BAD” value is on record as “increase in TM”. The “evidence of BAD binding in the DSF assay” value is “only showed evidence of BAD binding in the presence of activating DNA” on PARP-2 (PARP-2, with or without DNA bearing 5'P) and “only showed evidence of BAD binding in the presence of activating DNA” at PARP-3 (PARP-3, with or without DNA bearing 5'P). At full-length PARP-1 WT (BAD 20 μM with PARP-1 40 μM and DNA 40 μM (dumbbell DNA, central 1 nt-gap)), the “level of signal reduction of BAD spectrum peaks” value is ~ 95%. For the same compound, the “BAD spectrum compared with BAD alone” value on full-length PARP-1 WT (BAD 20 μM with PARP-1 40 µM, no DNA) was “essentially identical spectrum”.

The values above are taken from PMC5829251, “NAD^+ analog reveals PARP-1 substrate-blocking mechanism and allosteric communication from catalytic center to DNA-binding domains” (Nature Communications, 2018).
